Reference: patent publication US20240131168A1, “NAPHTHALENE RING-CONTAINING COMPOUND, PHARMACEUTICAL COMPOSITION CONTAINING SAME, AND USE THEREOF” (JIANGSU YAHONG MEDITECH CO., LTD., priority 2021, published 2024)

Experiments:
Format in all cases: cell-based
MDA-MB-468 = assay: CellTiter-Glo cell proliferation inhibition, MDA-MB-468; settings: Homo sapiens, 144 h; MDA-MB-468 (CTG), 6 days, starting concentration 10 μM; read-out: IH % max (maximum inhibition percentage)
Description: (§1) 1. Cell line • (1) Breast cancer cell lines and their culture media: • MCF-7 (ATCC; Cat. No.: HTB-22), a Luminal A breast cancer cell; • TamR-MCF-7 (ATCC; Cat. No.: CRL-3435), a breast cancer cell; • MCF-7 ER^D538G: a Luminal A breast cancer cell obtained by constructing MCF-7 (ATCC; Cat. No.: HTB-22) using CRISPR-Cas9 gene editing technology; • MCF-7 ER^Y537S: a Luminal A breast cancer cell obtained by constructing MCF-7 (ATCC; Cat. No.: HTB-22) using CRISPR-Cas9 gene editing technology; • MDA-MB-231: (manufacturer: Nanjing CoBioer Biosciences Co., Ltd.), a triple-negative breast cancer cell; • MDA-MB-468: (manufacturer: Nanjing CoBioer Biosciences Co., Ltd.), a triple-negative breast cancer cell.
(§2) Herein, the culture medium of MCF-7, TamR-MCF-7, MCF-7 ER^D538G, and MCF-7 ER^Y537S was EMEM; • the culture medium of MDA-MB-231 and MDA-MB-468 was DMEM.
(§3) 2. Reagents • Culture medium EMEM (Gibco, 1964507) • Culture medium DMEM (Gibco, 12430-054) • Fetal bovine serum (Gibco, 10091148) • Penicillin-streptomycin double antibody (Gibco, S110JV) • DPBS (Gibco, 14190-144) • CellTiter-Glo® assay kit (Promega, G7573) • Trypsin (0.25%) (Gibco, 25200-056) • DMSO (Sigma, D2650)
(§4) 3. Instruments • Biosafety cabinet (AIRTECH, BSC-1300A II) • Automated cell counter (Life Technologies, countess II) • Multifunctional microplate reader (Biotek, H1FM) • Orbital shaker (Hangzhou Allsheng Instruments Co., Ltd., OS-100) • XLFIT 5.3 (Inforstack Shanghai Co., Ltd.)
(§5) For this test method, the following experiments were performed in a biosafety cabinet, with the specific steps as follows: • (1) Cells were inoculated in a 96-well plate. One day later, the previous culture medium was poured off, 5 mL of DPBS was added to wash the cells, and then DPBS was pipetted and discarded. An appropriate amount of trypsin was then added. The plate was digested in a 37° C., 5% CO2 cell incubator for about 2 to 5 minutes and then taken out. Anew corresponding culture medium was added, and pipetted up and down to resuspend the cells evenly. The cells were then counted using an automated cell counter. • (2) Each cell was inoculated in columns 1 to 11 of a 96-well plate (Corning, Cat. No.: 3610) at a density of 1,000 or 2,000 cells per well in 100 μL of culture medium, and 100 μL of the corresponding culture medium without cells was added to the wells in column 12. The plate was then placed in a 37° C., 5% CO2 incubator for 24 hours. • (3) The compound of the present disclosure and the control drug fulvestrant (Selleck; Cat. No.: S1191) were then 4-fold serially diluted to 10 dose points starting at 10 μM. 10 μL of the serially diluted compound was pipetted and added to 100 μL of cells in columns 1 to 10, and 10 μL of the corresponding culture medium containing 0.33 v % DMSO was added to both columns 11 and 12. The plate was incubated in a 37° C., 5% CO2 incubator for 6 days or 72 hours (Note: column 11 was used as a MAX well with cells but without compound; column 12 was used as a MIN well without cells […]). • (4) The cell viability detection reagent in the CellTiter-Glo® assay kit was then added to the 96-well plate at 50 μL per well according to the instructions, and shaken on an orbital shaker in the dark for 5 to 10 minutes. The cell viability was then measured using a multifunctional microplate reader. Finally, the inhibition of cell proliferation by the compound of the present disclosure was plotted by XLFIT software, and the IC50 value (half inhibitory concentration) and the IH % max (maximum inhibition percentage) of the compound of the present disclosure were calculated.
Compounds D64 to D69 were tested for MDA-MB-231 (CTG) and MDA-MB-468 (CTG) with an incubation time of 72 hours in the incubator.

MCF-7 ER^D538G = assay: CellTiter-Glo cell proliferation inhibition, MCF-7 ER^D538G; settings: Homo sapiens, MCF7, 144 h, MCF-7 ER^D538G (CTG), 6 days, starting concentration 10 μM; for inhibition at up to 10 µM: read-out: IH % max (maximum inhibition percentage)
Description: as §1, §2, §3, §4, §5

MCF-7 ER^Y537S = assay: CellTiter-Glo cell proliferation inhibition, MCF-7 ER^Y537S; settings: Homo sapiens, MCF7, 144 h; MCF-7 ER^Y537S (CTG), 6 days, starting concentration 10 μM; read-out: IH % max (maximum inhibition percentage)
Description: as §1, §2, §3, §4, §5

MCF-7 = assay: CellTiter-Glo cell proliferation inhibition, MCF-7 (Effect Example 2); settings: Homo sapiens, MCF7, 144 h, MCF-7 (CTG), 6 days, starting concentration 10 μM; for inhibition at up to 10 µM: read-out: IH % max (maximum inhibition percentage)
Description: as §1, §2, §3, §4, §5

TamR-MCF-7 = assay: CellTiter-Glo cell proliferation inhibition, TamR-MCF-7; settings: 144 h; TamR-MCF-7 (CTG), 6 days, starting concentration 10 μM; read-out: IH % max (maximum inhibition percentage)
Description: as §1, §2, §3, §4, §5

IC50 (MCF-7 ER^D538G) | IC50 (MCF-7) | Structure (SMILES) | inhibition at up to 10 µM (MDA-MB-468) | inhibition at up to 10 µM (MCF-7 ER^D538G) | inhibition at up to 10 µM (MCF-7 ER^Y537S) | inhibition at up to 10 µM (MCF-7) | inhibition at up to 10 µM (TamR-MCF-7)
0.283 µM |  | CCN(CCOCCOCCNc1cccc2c1C(=O)N(C1CCC(=O)NC1=O)C2=O)CCOc1ccc(Oc2c(-c3ccc(S(C)(=O)=O)cc3)ccc3cc(O)ccc23)cc1 (centres unmarked) [Compound D42] | 39% | 77% | 46% | 37% | 
 |  | CCN(CCOCCOCCOCCOc1cccc2c1C(=O)N(C1CCC(=O)NC1=O)C2=O)CCOc1ccc(Oc2c(-c3ccc(S(C)(=O)=O)cc3)ccc3cc(O)ccc23)cc1 (centres unmarked) [Compound D36, 2-(2,6-dioxopiperidin-3-yl)-4-((3-ethyl-1-(4-((6-hydroxy-2-(4-(methylsulfonyl)phenyl)naphthalen-1-yl)oxy)phenoxy)-6,9,12-trioxa-3-azatetradecan-14-yl)oxy)isoindoline-1,3-dione] | 37% | 62% | 51% |  | 
 |  | CCN(CCOCC(=O)N1CCN(c2cccc3c2CN(C2CCC(=O)NC2=O)C3=O)CC1)CCOc1ccc(Oc2c(-c3ccc(S(C)(=O)=O)cc3)ccc3cc(O)ccc23)cc1 (centres unmarked) [Compound D52] |  |  |  | 52.6% | 39.4%
 |  | CS(=O)(=O)c1ccc(-c2ccc3cc(O)ccc3c2Oc2ccc(OCCN3CCN(c4ccc5c(c4)C(=O)N(C4CCC(=O)NC4=O)C5)CC3)cc2)cc1 (centres unmarked) [Compound D32, 3-(6-(4-(2-(4-((6-hydroxy-2-(4-(methylsulfonyl)phenyl)naphthalen-1-yl)oxy)phenoxy)ethyl)piperazin-1-yl)-1-oxoisoindolin-2-yl)piperidine-2,6-dione] |  | 38% | 33% | 39% | 
 |  | CCN(CCOCCNc1ccc2c(c1)C(=O)N(C1CCC(=O)NC1=O)C2=O)CCOc1ccc(Oc2c(-c3ccc(S(C)(=O)=O)cc3)ccc3cc(O)ccc23)cc1 (centres unmarked) [Compound D38, […]] |  | 54% | 47% |  | 
 |  | CCN(CCOCCOCCOCCOc1ccc2c(c1)C(=O)N(C1CCC(=O)NC1=O)C2=O)CCOc1ccc(Oc2c(-c3ccc(S(C)(=O)=O)cc3)ccc3cc(O)ccc23)cc1 (centres unmarked) [Compound D48, 2-(2,6-dioxopiperidin-3-yl)-5-((3-ethyl-1-(4-((6-hydroxy-2-(4-(methylsulfonyl)phenyl)naphthalen-1-yl)oxy)phenoxy)-6,9,12-trioxa-3-azatetradecan-14-yl)oxy)isoindoline-1,3-dione] |  | 66% | 41% | 32% | 
 |  | CS(=O)(=O)c1ccc(-c2ccc3cc(O)ccc3c2Oc2ccc(OCCOCCOCCN3CCN(c4ccc5c(c4)C(=O)N(C4CCC(=O)NC4=O)C5=O)CC3)cc2)cc1 (centres unmarked) [Compound D16, 2-(2,6-dioxopiperidin-3-yl)-5-(4-(2-(2-(2-(4-((6-hydroxy-2-(4-(methylsulfonyl)phenyl)naphthalen-1-yl)oxy)phenoxy)ethoxy)ethoxy)ethyl)piperazin-1-yl)isoindoline-1,3-dione] |  | 47% |  | 51% | 33%
 |  | CCN(CCOCCOCCOc1cccc2c1C(=O)N(C1CCC(=O)NC1=O)C2=O)CCOc1ccc(Oc2c(-c3ccc(S(C)(=O)=O)cc3)ccc3cc(O)ccc23)cc1 (centres unmarked) [Compound D41] | 31% | 65% | 50% |  | 
 |  | C[C@@H]1CN(CCOc2ccc(Oc3c(-c4ccc(S(C)(=O)=O)cc4)ccc4cc(O)ccc34)cc2)[C@@H](C)CN1CCN1CCN(c2ccc3c(c2)C(=O)N(C2CCC(=O)NC2=O)C3)CC1 (stereo partly drawn) [Compound D61, 3-(6-(4-(2-((2R,5S)-4-(2-(4-((6-hydroxy-2-(4-(methylsulfonyl)phenyl)naphthalen-1-yl)oxy)phenoxy)ethyl)-2,5-dimethylpiperazin-1-yl)ethyl)piperazin-1-yl)-1-oxoisoindolin-2-yl)piperidine-2,6-dione] | 32.7% |  |  | 45.6% | 40.2%
 |  | CCN(CCOc1ccc(Oc2c(-c3ccc(S(C)(=O)=O)cc3)ccc3cc(O)ccc23)cc1)CCN1CCN(c2ccc3c(c2)CN(C2CCC(=O)NC2=O)C3=O)CC1 (centres unmarked) [Compound D57, 3-(5-(4-(2-(ethyl(2-(4-((6-hydroxy-2-(4-(methylsulfonyl)phenyl)naphthalen-1-yl)oxy)phenoxy)ethyl)amino)ethyl)piperazin-1-yl)-1-oxoisoindolin-2-yl)piperidine-2,6-dione] |  | 51% | 46% |  | 
0.198 µM |  | CCN(CCOCCOCCNc1ccc2c(c1)C(=O)N(C1CCC(=O)NC1=O)C2=O)CCOc1ccc(Oc2c(-c3ccc(S(C)(=O)=O)cc3)ccc3cc(O)ccc23)cc1 (centres unmarked) [Compound D45] |  | 75% | 44% | 35% | 33%
 | 0.222 µM | CS(=O)(=O)c1ccc(-c2ccc3cc(O)ccc3c2Oc2ccc(OCCOCCOCCOCCN3CCN(c4ccc5c(c4)CN(C4CCC(=O)NC4=O)C5=O)CC3)cc2)cc1 (centres unmarked) [Compound D27] |  | 69% |  | 60% | 40%
 |  | CCN(CCCCCOCC(=O)Nc1cccc2c1CN(C1CCC(=O)NC1=O)C2=O)CCOc1ccc(Oc2c(-c3ccc(S(C)(=O)=O)cc3)ccc3cc(O)ccc23)cc1 (centres unmarked) [Compound D1, N-(2-(2,6-dioxopiperidin-3-yl)-1-oxoisoindolin-4-yl)-2-((5-(ethyl(2-(4-((6-hydroxy-2-(4-(methylsulfonyl)phenyl)naphthalen-1-yl)oxy)phenoxy)ethyl)amino)pentyl)oxy)acetamide] |  | 79% | 73% | 30% | 33%
0.503 µM |  | CCN(CCCc1ccc2c(c1)CN(C1CCC(=O)NC1=O)C2=O)CCOc1ccc(Oc2c(-c3ccc(S(C)(=O)=O)cc3)ccc3cc(O)ccc23)cc1 (centres unmarked) [Compound D4, 3-(5-(3-(ethyl(2-(4-((6-hydroxy-2-(4-(methylsulfonyl)phenyl)naphthalen-1-yl)oxy)phenoxy)ethyl)amino)propyl)-1-oxoisoindolin-2-yl)piperidine-2,6-dione] | 53% | 80% | 63% |  | 32%
